Values joined by “and” are separate entries in the source; they are usually repeats but may differ in a detail not shown here. Identical values can stand only once.
What was measured:
[1] = Effect of storage (dwell time) on efficacy of pre-mixed CaSt suspensions; format: biochemical; conditions: 15 minutes
Method: Efficacy of pre-mixed CaSt suspensions (sonicated and vortexed) was tested, comparing efficacy of immediately prepared suspensions with suspensions having shelf life or dwell time of 90 min, 5 days, and 1 month prior to contact with endotoxin containing solutions.
10 mL SRW was then introduced to the sonicated CaSt mixture. It was then vortexed for 5 seconds to fully incorporate the sonicated CaSt. The mixture was then tested after 15 minutes of interaction to measure the percent decrease of endotoxin.
10 mL SRW was then introduced to the vortexed CaSt mixture. It was then vortexed for 5 seconds to fully incorporate the sonicated CaSt. The mixture was then tested after 15 minutes of interaction to measure the percent decrease of endotoxin.
These mixtures were then tested on the Charles River MCS at a dilution of 1:2000 after 15 minutes of interaction.
Test samples were prepared as described above, sonicated and vortexed, but were subjected to shelf life or dwell time of 90 min, 5 days, and 1 month prior to contact with endotoxin containing solution (SRW). After dwell time exposure, similarly to the immediate mixing test above, 10 mL SRW was then introduced to the sonicated or vortexed CaSt mixture. It was then vortexed for 5 seconds to fully incorporate the sonicated CaSt. The mixture was then tested after 15 minutes of interaction to measure the percent decrease of endotoxin. These mixtures were then tested on the Charles River MCS at a dilution of 1:2000 after 15 minutes of interaction.
*The 1 month shelf life sample was only tested at 0.04 g CaSt and measured the percent removal after 15 minutes of interaction as well as 30 minutes after interaction.

[2] = Animal study: calcium stearate alone dosed intraperitoneally (NC-2); format: in vivo; conditions: NC-2: 0.2 g Calcium Stearate in 5.0 mL normal saline, intraperitoneal, female rats, observed 4 days
Method: (§1) An animal study was conducted with 30 female rats with weights ranging from 250-300 g and acclimated for 5 days. All rats were dosed with intraperitoneal injections using 18 gauge needles. The rats were broken into 6 groups. A negative control (NC-1) dosed 5 rats with 5 mL of normal saline solution. […] A positive control (PC-1) dosed 5 rats with 2.5 million EU in a 5 mL saline solution. A second positive control (PC-2) was conducted dosing 5 rats with 5 million endotoxin units in a 5 mL normal saline solution. Two experimental test groups were conducted.
(§2) The negative control samples also had no toxicity.

[3] = Animal study: intraperitoneal endotoxin mixed with calcium stearate; format: in vivo; conditions: female rats, 4 days, endotoxin alone: severe toxicity
Method: as §1, §2

[4] = Detection of LPS in water in presence of CaSt and EDTA and Tween 20; format: biochemical; conditions: 8330 EU spiked
Method: Further testing was performed with addition of EDTA and Polysorbate 20 reagents to verify permanent removal of LPS/endotoxin activity, by adding EDTA and Polysorbate 20 to the extraction solutions to test for potential recovery of endotoxin activity when introduced to these two substances.
The testing was performed in aqueous solutions with added EDTA and Polysorbate 20, with suspended CaSt present in some solutions in varying quantities. […] The tubes were vortexed for 1 minute and placed in a 37 C bath for 1 hour. The tubes were removed from the bath and again vortexed for 1 minute. The solutions were diluted and tested for endotoxin using the Kinetic Chromogenic Method for Endotoxin Quantitation, Charles River Laboratories, Charleston S.C. […] These samples were rigorously vortexed and tested using the Kinetic Chromogenic Method for Endotoxin Quantitation, Charles River Laboratories, Charleston S.C.

[5] = 0.02 g CaSt, Sonicated, 5 Day dwell time
[6] = 0.02 g CaSt, Sonicated, 90 min dwell time
[7] = 0.02 g CaSt, Sonicated, Immediate Mixing
[8] = 0.02 g CaSt, Vortexed, 5 Day dwell time
[9] = 0.02 g CaSt, Vortexed, 90 min dwell time
[10] = 0.04 g CaSt, Sonicated, 1 Month dwell time
[11] = 0.04 g CaSt, Sonicated, 5 Days dwell time
[12] = 0.04 g CaSt, Sonicated, 90 min dwell time
[13] = 0.04 g CaSt, Sonicated, Immediate Mixing
[14] = 0.04 g CaSt, Vortexed, 5 Days dwell time
[15] = 0.04 g CaSt, Vortexed, 90 min dwell time
[16] = 0.04 g CaSt, Vortexed, Immediate Mixing
[17] = CaSt suspension 0.007 g in 5 mL
[18] = CaSt suspension 0.007 g with 0.1M EDTA and 0.05% Tween20
[19] = CaSt suspension 0.018 g in 5 mL
[20] = CaSt suspension 0.018 g with 0.1M EDTA and 0.05% Tween20
[21] = CaSt suspension 0.028 g in 5 mL
[22] = CaSt suspension 0.028 g with 0.1M EDTA and 0.05% Tween20

Calcium Stearate
EU After ([1]; 0.02 g CaSt in 10 mL LRW, Sonicated, Immediate Mixing with 10 mL SRW, 36,100 EU before): 8,960 EU and 10,240 EU
Average Percent Change [1, 5]: 76%
Percent Endotoxin Removed [1, 5]: 76%
EU After ([1]; 0.02 g CaSt, Sonicated, 5 Day dwell time, 37,800 EU before): 9,200 EU
Average Percent Change [1, 6]: 61%
Percent Endotoxin Removed [1, 6]: 58% and 64%
EU After ([1]; 0.02 g CaSt, Sonicated, 90 min dwell time, 36,100 EU before): 15,120 EU and 12,960 EU
Average Percent Change [1, 7]: 74%
Percent Endotoxin Removed [1, 7]: 75% and 72%
Average Percent Change [1, 8]: 64%
Percent Endotoxin Removed [1, 8]: 60% and 68%
EU After ([1]; 0.02 g CaSt, Vortexed, 5 Day dwell time, 37,800 EU before): 15,120 EU and 12,160 EU
Average Percent Change [1, 9]: 43%
Percent Endotoxin Removed [1, 9]: 38% and 47%
EU After ([1]; 0.02 g CaSt, Vortexed, 90 min dwell time, 36,100 EU before): 22,400 EU and 19,280 EU
Average Percent Change ([1]; 0.02 g CaSt, Vortexed, Immediate Mixing): 32%
EU After ([1]; 0.02 g CaSt, Vortexed, Immediate Mixing, 36,100 EU before): 29,200 EU and 20,480 EU
EU After ([1]; 0.04 g CaSt in 10 mL LRW, Sonicated, Immediate Mixing with 10 mL SRW, 36,100 EU before): 5,320 EU and 5,800 EU
Average Percent Change [1, 10]: 50%
Percent Endotoxin Removed [1, 10]: 49.2% and 50.6%
Average Percent Change [1, 11]: 85%
Percent Endotoxin Removed [1, 11]: 87% and 83%
Average Percent Change [1, 12]: 81%
Percent Endotoxin Removed [1, 12]: 83% and 78%
Average Percent Change [1, 13]: 85%
Percent Endotoxin Removed [1, 13]: 85% and 84%
EU After ([1]; 0.04 g CaSt, Sonicated, Mixing after 1 Month dwell time, 14,650 EU before): 7,440 EU and 7,240 EU
EU After ([1]; 0.04 g CaSt, Sonicated, Mixing after 5 Days dwell time, 37,800 EU before): 5,040 EU and 6,560 EU
EU After ([1]; 0.04 g CaSt, Sonicated, Mixing after 90 min dwell time, 36,100 EU before): 6,168 EU and 8,000 EU
Average Percent Change [1, 14]: 75%
Percent Endotoxin Removed [1, 14]: 76% and 74%
Average Percent Change [1, 15]: 54%
Percent Endotoxin Removed [1, 15]: 53% and 54%
Average Percent Change [1, 16]: 44%
Percent Endotoxin Removed [1, 16]: 45% and 43%
EU After ([1]; 0.04 g CaSt, Vortexed, Immediate Mixing, 36,100 EU before): 19,840 EU and 20,480 EU
EU After ([1]; 0.04 g CaSt, Vortexed, Mixing after 5 Days dwell time, 37,800 EU before): 9,080 EU and 9,760 EU
EU After ([1]; 0.04 g CaSt, Vortexed, Mixing after 90 min dwell time, 36,100 EU before): 17,120 EU and 16,460 EU
Results (toxicity observed) [2]: No Toxicity
Results (toxicity observed) ([3]; T-1: 2,500,000 EU + 0.2 g Calcium Stearate in 5.0 mL normal saline dosed IP): No Toxicity
Results (toxicity observed) ([3]; T-1: 2,500,000 EU + 0.2 g Calcium Stearate in 5.0 mL normal saline dosed IP, listed as calcium stearate): no toxicity or adverse effects
Results (toxicity observed) ([3]; T-2: 5,000,000 EU + 0.2 g Calcium Stearate in 5.0 mL normal saline dosed IP): No Toxicity
Results (toxicity observed) ([3]; T-2: 5,000,000 EU + 0.2 g Calcium Stearate in 5.0 mL normal saline dosed IP, listed as calcium stearate): no toxicity or adverse effects
Endotoxin Detected [4, 17]: 3995 EU
Percent detected Endotoxin [4, 17]: 48.0%
Endotoxin Detected [4, 18]: 5050 EU
Percent detected Endotoxin [4, 18]: 60.6%
Endotoxin Detected [4, 19]: 1487.5 EU
Percent detected Endotoxin [4, 19]: 17.9%
Endotoxin Detected [4, 20]: 1545 EU
Percent detected Endotoxin [4, 20]: 18.5%
Endotoxin Detected [4, 21]: 235 EU
Percent detected Endotoxin [4, 21]: 2.8%
Endotoxin Detected [4, 22]: 255 EU
Percent detected Endotoxin [4, 22]: 3.1%

From US20180077929A1, “METHODS AND SYSTEMS FOR TREATING MEDICAL DEVICES AND FLUIDS” (priority 2016, published 2018)
